Read-outs that look alike come from different tables or passages of the source.
Assays:
[1] = in vitro; settings: human
[2] = system: Junin virus; experiment: microbe, parasite or virus in culture; format: cell-based; settings: Mammarenavirus juninense, Vero; for EC90: read-out: EC90 Junin Vero
[3] = system: MERS-CoV; experiment: microbe, parasite or virus in culture; format: cell-based; settings: Middle East respiratory syndrome-related coronavirus, HAE, read-out: EC50 MERS (HAE)
[4] = in vitro; settings: human; remark: listed apart in the source
[5] = system: SARS-CoV; experiment: microbe, parasite or virus in culture; format: cell-based; settings: Severe acute respiratory syndrome coronavirus, HAE, read-out: EC50 SARS (HAE)
[6] = system: Lassa virus; experiment: microbe, parasite or virus in culture; format: cell-based; settings: Mammarenavirus lassaense, HeLa; for EC50: read-out: EC50 HCS Lassa HeLa; for EC90: read-out: EC90 HCS Lassa HeLa
[7] = system: MERS-CoV (Strain Jordan N3); experiment: microbe, parasite or virus in culture; format: cell-based; settings: Middle East respiratory syndrome-related coronavirus, Vero, read-out: EC50 MERS-CoV Vero
[8] = system: Junin virus; experiment: microbe, parasite or virus in culture; format: cell-based; settings: Mammarenavirus juninense, HeLa; for EC50: read-out: EC50 HCS Junin HeLa; for EC90: read-out: EC90 HCS Junin HeLa
[9] = system: SARS-CoV; experiment: microbe, parasite or virus in culture; format: cell-based; settings: Severe acute respiratory syndrome coronavirus, Calu-3 2B4, read-out: EC50 SARS (Calu-3)
[10] = mouse, in vivo
[11] = system: MERS-CoV; experiment: microbe, parasite or virus in culture; format: cell-based; settings: Middle East respiratory syndrome-related coronavirus, Calu-3 2B4, read-out: EC50 MERS (Calu-3)
[12] = system: SARS-CoV; parameters: species or system mice; settings: mouse, in vivo
[13] = system: MERS-CoV isolate HCoV-EMC/2012; parameters: species or system rhesus monkeys; settings: rhesus monkey, in vivo

Row | SMILES | CC50 [1] [nM] | EC90 [2] [nM] | EC50 [3] [nM] | CC50 [4] [nM] | EC50 [5] [nM] | EC50 [6] [nM] | EC90 [6] [nM] | EC50 [7] [nM] | EC50 [8] [nM] | EC90 [8] [nM] | other results
1 | N#C[C@@]1(c2ccc3c(N)ncnn23)O[C@H](CO)[C@@H](O)[C@H]1O [Compound 1, (2R,3R, 4S, 5R)-2-(4-aminopyrrolo[1,2-f][1,2,4]triazin-7-yl)-3,4-dihydroxy-5-(hydroxymethyl)tetrahydrofuran-2-carbonitrile] | > 100000 | > 47000 | 460 | > 100000 | 220 | – | – | – | – | – | –
2 | CCC(CC)COC(=O)[C@H](C)NP(=O)(OC[C@H]1O[C@@](C#N)(c2ccc3c(N)ncnn23)[C@H](O)[C@@H]1O)Oc1ccccc1 (stereo partly drawn) [Compound 9, (2S)-2-ethylbutyl 2-((((2R,3S,4R,5R)-5-(4-aminopyrrolo[1,2-f][1,2,4]triazin-7-yl)-5-cyano-3,4-dihydroxytetrahydrofuran-2-yl)methoxy)(phenoxy)phosphorylamino)propanoate] | – | > 47000 | – | – | – | 2000 | 4210 | 460 | 490 | 1250 | EC50 ([2]; read-out: EC50 Junin Vero): > 47000 nM
3 | CCC(CC)COC(=O)[C@H](C)N[P@](=O)(OC[C@H]1O[C@@](C#N)(c2ccc3c(N)ncnn23)[C@H](O)[C@@H]1O)Oc1ccccc1 [Compound 32, (S)-2-ethylbutyl 2-(((S)-(((2R,3S,4R,5R)-5-(4-aminopyrrolo[2,1-f][1,2,4]triazin-7-yl)-5-cyano-3,4-dihydroxytetrahydrofuran-2-yl)methoxy)(phenoxy)phosphoryl)amino)propanoate] | > 10000 | – | 74 | > 10000 | 69 | 1650 | 3310 | 580 | 470 | 1260 | EC50 [9]: 10 nM; Plasma stability [10]: improved the plasma stability; EC50 [11]: 30 nM; Changes in body weight post infection [12]: no evidence of weight loss; Expiration Time and End Expiratory Pause (whole body plethysmography) [12]: reduced; Infectious virus in lung tissue by plaque assay [12]: significantly decreased; Penh values (whole body plethysmography) [12]: lower compared to vehicle-treated animals; Respiration rates [13]: tended to be higher at Day 6 in vehicle-treated animals; Viral RNA in the liver, spleen, kidney and bladder tissue [13]: below the limit of detection; Viral RNA in the mediastinal lymph node [13]: detected in all animals; Viral RNA in the respiratory tract [13]: significantly reduced; Viral load in nose swabs and throat swabs [13]: no difference in viral load; Body weight and body temperature during the course of the infection ([13]; iv, 10 mg/kg): did not change appreciably; Cumulative clinical scores ([13]; iv, 10 mg/kg): notably higher in vehicle-treated animals; Disease symptoms ([13]; iv, 10 mg/kg): less pronounced

From patent US11007208B2 (priority 2015, dated 2021)
